Data from the supplement of paper PMC10307832.

Experiments:
Assay in all cases: relative viability (nuclei count vs DMSO), 5 days (fraction); higher = more cells survive
Sulindac + Trametinib = compound: CC1=C(CC(=O)O)c2cc(F)ccc2/C1=C\c1ccc([S+](C)[O-])cc1 [Sulindac] + CC(=O)Nc1cccc(-n2c(=O)n(C3CC3)c(=O)c3c(Nc4ccc(I)cc4F)n(C)c(=O)c(C)c32)c1 [Trametinib] (partner 0.02 µM)
Summary of the method: (§1)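 Dosing by pin tool came one day after lung cancer cell lines were seeded in 1536-well plates, using either one drug or a fixed anchor-drug dose plus five library-drug doses (not always all listed) in √10 steps. After 5 days, nuclei were counted on 4× images. Relative viability is treated-well nuclei count divided by vehicle-well nuclei count, and values are medians of duplicate plates.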

[1] = compound: CN[C@@H]1C[C@H]2O[C@@](C)([C@@H]1OC)n1c3ccccc3c3c4c(c5c6ccccc6n2c5c31)C(=O)NC4 [Staurosporine] + Nc1nc2[nH]cc(CCc3ccc(C(=O)N[C@@H](CCC(=O)O)C(=O)O)cc3)c2c(=O)[nH]1 [Pemetrexed] (partner 0.2 µM)
Summary of the method: as §1

[2] = compound: O=c1[nH]cc(F)c(=O)[nH]1 [5-Fluorouracil] + COc1cc2c(Oc3ccc(NC(=O)C4(C(=O)Nc5ccc(F)cc5)CC4)cc3F)ccnc2cc1OCCCN1CCOCC1 [Foretinib] (partner 0.25 µM)
Summary of the method: as §1

[3] = compound: O=c1[nH]cc(F)c(=O)[nH]1 [5-Fluorouracil] + N=C(N)NC(=N)NCCc1ccccc1 [Phenformin] (partner 250 µM)
Summary of the method: as §1

For UMC-11, which relative viability (Sulindac + Trametinib; first compound 0.08 µM) is on record?
Its relative viability is 0.733.

What about the relative viability (Sulindac + Trametinib; first compound 0.253 µM) of the same cell line?
The relative viability was 0.764.

What about the relative viability (Sulindac + Trametinib; first compound 0.8 µM) of the same cell line?
The relative viability was 0.679.

What about the relative viability (Sulindac + Trametinib; first compound 2.53 µM) of the same cell line?
The relative viability was 0.654.

And the relative viability (Sulindac + Trametinib; first compound 8 µM)?
The relative viability was 0.757.

And the relative viability ([1]; first compound 0.005 µM)?
Its relative viability is 0.695.

And the relative viability ([1]; first compound 0.01581 µM)?
Its relative viability is 0.472.

And the relative viability ([1]; first compound 0.05 µM)?
The relative viability was 0.387.

What about the relative viability ([1]; first compound 0.1581 µM) of the same cell line?
The relative viability was 0.104.

What about the relative viability ([1]; first compound 0.5 µM) of the same cell line?
Its relative viability is 0.0932.

And the relative viability ([2]; first compound 0.02 µM)?
The relative viability was 0.983.

What about the relative viability ([2]; first compound 0.2 µM) of the same cell line?
Its relative viability is 0.728.

And the relative viability ([2]; first compound 0.6325 µM)?
The relative viability was 0.518.

And the relative viability ([2]; first compound 2 µM)?
Its relative viability is 0.396.

What about the relative viability ([3]; first compound 0.02 µM) of the same cell line?
Its relative viability is 0.368.

What about the relative viability ([3]; first compound 0.2 µM) of the same cell line?
Its relative viability is 0.308.

And the relative viability ([3]; first compound 0.6325 µM)?
The relative viability was 0.326.

What about the relative viability ([3]; first compound 2 µM) of the same cell line?
The relative viability was 0.339.
